Results published in patent publication US6231894A, “Treatments based on discovery that nitric oxide synthase is a paraquat diaphorase” (Duke University, priority 1999, dated 2001).

System: nitrotyrosine
Experiment: Nitrotyrosine staining in macrophages
Assay type: cell-based
Conditions: combination of paraquat and cytomix
Protocol: Western blot analysis was carried out as follows. Cells were lysed in ice-cold 50 mM Tris buffer (pH 7.4) containing 1% sodium dodecyl sulfate and protease inhibitor cocktail (Boehringer Mannheim). Protein (10 μg) was separated on a 4-20% gradient SDS-PAGE at 250 V for 30 minutes and transferred onto a nitrocellulase membrane at 30 V for 12 hours. Proteins were detected using polyclonal antibodies against human NOS3 (TransductionLaboratories; 1/1000) and nitrated keyhole limpet hemocyanin, nitrotyrosine (Upstate Biology; 1/5000). Primary antibodies were detected with a goat anti-rabbit-HRP antibody (Jackson; 1/15,000) and developed using an ECL kit (Amersham).
The RAW-264.7 monocyte macrophage cells line (TIB-71) was purchased from the American Type Culture Collection (Manassas, Va.). The cells were grown in T-75 flasks containing DMEM (Gibco-BRL, Grand Island, N.Y.) supplemented with 1 mM pyruvate, 4.5 g/L glucose and […] fetal bovine serum Macrophages were plated at 2.0×10^4 cells/well in 24-well plates and experiments were performed when cells were near confluence. […]
NOS2 was induced in RAW cells using a mixture of interferon-γ and lipopolysaccharide (LPS) referred to as "cytomix." Unstimulated (basal) and activated (cytomix) macrophages were treated with 0.1 mM paraquat or not treated with paraquat and cytotoxicity and NO production were assessed at 24 hours.

With `C[n+]1ccc(-c2cc[n+](C)cc2)cc1` [paraquat] the nitrotyrosine staining was “A decrease in nitrotyrosine staining”.
